A word on the IC50: it is the point on the concentration scale where inhibition reaches its midpoint.

This assay deals with Human immunodeficiency virus type 1 protease (Human immunodeficiency virus 1, UniProt Q72874). Briefly: Inhibition of human immunodeficiency virus type 1 (HIV-1) protease enzyme.
With `CC(C)(C)OC(=O)NC(Cc1ccccc1)[C@@H](O)CC(Cc1ccc(N)cc1)C(=O)NC1c2ccccc2C[C@@H]1O` (stereo partly specified), the IC50 was 0.309 nM. This lies in the sub-nanomolar range. With `CC(C)(C)OC(=O)N[C@@H](Cc1ccccc1)[C@@H](O)/C=C(/Cc1ccccc1)C(=O)NC1c2ccccc2C[C@@H]1O` (stereo partly specified) the figure was 1.29 nM. With `CC(C)(C)OC(=O)N[C@@H](Cc1ccccc1)[C@@H](O)C[C@H](C(=O)NC1c2ccccc2C[C@@H]1O)C(=O)c1ccccc1` (stereo partly specified) the figure was 5.37 nM; with `CC(C)(C)OC(=O)N[C@@H](Cc1ccc(O)cc1)[C@@H](O)C1CCCC1C(=O)NCc1ccccc1` (stereo partly specified), 589 nM. With `CC(C)(C)OC(=O)N[C@@H](Cc1ccccc1)[C@@H](O)C[C@@H](Cc1ccc(C(F)(F)F)cc1)C(=O)NC1c2ccccc2C[C@@H]1O` (stereo partly specified) the figure was 0.257 nM. Consider `O=C(NC1c2ccccc2C[C@@H]1O)[C@H](Cc1ccccc1)CC(O)C[C@@H](Cc1ccccc1)C(=O)NC1c2ccccc2C[C@@H]1O` (stereo partly specified), for which half-maximal inhibition (IC50) was put at 0.692 nM.

As for `CC(C)(C)OC(=O)N[C@@H](Cc1ccccc1)[C@@H](O)C[C@@H](Cc1ccccc1)C(=O)NC1c2ccccc2OC[C@@H]1O` (stereo in doubt; 26), the IC50 is 0.178 nM. To `CC(C)(C)OC(=O)N[C@@H](Cc1ccccc1)[C@@H](O)C[C@@H](Cc1ccccc1)C(=O)NC1c2ccccc2C(O)[C@@H]1O` (stereo partly specified) belongs 0.1 nM. To `CC(C)(C)OC(=O)N[C@@H](Cc1ccccc1)[C@@H](O)C[C@@H](Cc1c(F)c(F)c(F)c(F)c1F)C(=O)NC1c2ccccc2C[C@@H]1O` (stereo partly specified) belongs 0.603 nM.

The molecule `CC(C)(C)OC(=O)N[C@@H](Cc1ccccc1)[C@@H](O)C[C@@H](Cc1ccc(O)cc1)C(=O)NC1c2ccccc2C[C@@H]1O` (stereo partly specified) showed an IC50 of 0.158 nM. Turning to `CC(C)(C)OC(=O)N[C@@H](Cc1ccccc1)[C@@H](O)C[C@@H](Cc1ccccc1)C(=O)NC1c2ccccc2OC[C@@H]1O` (stereo in doubt; 27), the half-inhibitory concentration (IC50) is 40.7 nM. The molecule `CC(C)(C)OC(=O)NC(Cc1ccccc1)[C@@H](O)CC(CSc1ccccc1)C(=O)NC1c2ccccc2C[C@@H]1O` (stereo partly specified) showed an IC50 of 0.251 nM. This IC50 lies about 160-fold lower than the previous one.

In turn, `CC(C)(C)OC(=O)N[C@@H](Cc1ccccc1)[C@@H](O)C[C@@H](Cc1ccncc1)C(=O)NC1c2ccccc2C[C@@H]1O` (stereo partly specified) showed an IC50 of 0.525 nM. Compared with the last molecule, the IC50 is about 2.1-fold higher. Molecule `CC(C)(C)OC(=O)N[C@@H](Cc1ccccc1)[C@@H](O)C[C@@H](Cc1ccccc1)C(=O)NC1c2ccccc2C[C@@H]1O` (stereo partly specified) gave an IC50 of 0.251 nM. The molecule `CC(C)(C)OC(=O)N[C@@H](Cc1ccccc1)[C@@H](O)C[C@@H](C/C=C/c1ccccc1)C(=O)NC1c2ccccc2C[C@@H]1O` (stereo partly specified) had an IC50 of 0.229 nM.

`CC(C)(C)OC(=O)N[C@@H](Cc1ccccc1)[C@@H](O)CC(=O)NC1c2ccccc2C[C@@H]1O` (stereo partly specified) gave a 50% inhibitory concentration (IC50) of 562 nM. To `CC(C)(C)OC(=O)N[C@@H](Cc1ccccc1)[C@@H](O)C[C@@H](Cc1ccccc1)C(=O)NC1CCc2ccccc21` (stereo partly specified) belongs 33.9 nM; to `CC(C)(C)OC(=O)N[C@@H](Cc1ccccc1)[C@@H](O)C[C@@H](Cc1ccccc1)C(=O)NC1C=CC[C@@H]1O` (stereo partly specified), 9.55 nM; to `Cc1ccc(C[C@H](C[C@H](O)[C@H](Cc2ccccc2)NC(=O)OC(C)(C)C)C(=O)NC2c3ccccc3C[C@@H]2O)cc1` (stereo partly specified), 0.288 nM. Turning to `CC(C)(C)OC(=O)N[C@@H](Cc1ccccc1)[C@@H](O)C[C@@H](CCCc1ccccc1)C(=O)NC1c2ccccc2C(O)[C@@H]1O` (stereo partly specified), the IC50 was 0.191 nM. To `CC(C)(C)OC(=O)N[C@@H](Cc1ccccc1)[C@@H](O)CCC(=O)NC1c2ccccc2C[C@@H]1O` (stereo partly specified) belongs 2950 nM; to `CC(C)(C)OC(=O)NC(Cc1ccccc1)[C@@H](O)CC(Cc1ccc([N+](=O)[O-])cc1)C(=O)NC1c2ccccc2C[C@@H]1O` (stereo partly specified), 0.269 nM; to `O=C(N[C@@H](Cc1ccccc1)[C@@H](O)C[C@@H](Cc1ccccc1)C(=O)NC1c2ccccc2C[C@@H]1O)OC1CCOC1` (stereo partly specified), 0.0603 nM. To `CC(C)(C)OC(=O)N[C@@H](Cc1ccccc1)[C@@H](O)CC1(Cc2ccccc2)CCCN(C2c3ccccc3C[C@@H]2O)C1=O` (stereo partly specified) belongs 1260 nM. Turning to `COC(=O)C1Cc2ccccc2C1NC(=O)[C@H](Cc1ccccc1)C[C@H](O)[C@H](Cc1ccccc1)NC(=O)OC(C)(C)C` (stereo partly specified), the IC50 was 66.1 nM. To `C=CC[C@H](C[C@H](O)[C@H](Cc1ccccc1)NC(=O)OC(C)(C)C)C(=O)NC1c2ccccc2C[C@@H]1O` (stereo partly specified) belongs 27.5 nM.

These data come from ChEMBL document CHEMBL1133448, “Computational studies on HIV-1 protease inhibitors: influence of calculated inhibitor-enzyme binding affinities on the statistical quality of 3D-QSAR CoMFA models” (J Med Chem, 2000).
